# Data published in patent US20210077567A1, “Targeted Angiotensin 1-7 Peptide Conjugates and Formation and Use Thereof” (IDAHO STATE UNIVERSITY, priority 2019, published 2021).
# Marks after values point to notes of the source that are not given here.
# How the values were obtained:
# [1] = tested on: mRNA of RAS components (ACE, ACE2, AT1R, Mas receptor) in cancer cell line HSSY1; assay: Quantitative PCR of RAS component gene expression; format: cell-based; conditions: FIG. 12
# Excerpt: (§1) The viability of several different cancer cell lines including FUUR1, MoJo, SYO1, and the sarcoma cell line HSSY1 using the MTT assay across multiple concentrations and time points and compared with native Ang 1-7 as positive control and Ang II as negative control. The impact of Mas receptor activation by Ang peptide conjugate on gene expression of different components of the RAS, such as ACE1, ACE2, AT1R. Mas receptor was also studied using quantitative PCR using the different cancerous cell lines.
# [2] = Tissue distribution of radiolabeled peptides; format: in vivo; conditions: rats, i.v. or s.c.; FIG. 9
# Description: (§2) Pharmacokinetic studies were conducted using rats for calculation of biological half-life and other pharmacokinetic parameters of the conjugates in comparison with native peptides. The tissue distribution of conjugates was conducted on main organs, such as bone (major target), heart, liver, kidney, lung, etc.
# [3] = Pharmacokinetic study, plasma half-life; format: in vivo, rats
# Description: as §2
# [4] = tested on: FUUR1, MoJo, SYO1 and HSSY1 cancer cell lines; assay: MTT viability/proliferation assay on cancer cell lines (Example 2); format: cell-based; conditions: all cell lines tested (FUUR1, MoJo, SYO1, HSSY1); multiple concentrations; FIG. 11
# Excerpt: as §1
# [5] = Stability of the conjugate in solution by HPLC-UV; format: physicochemical
# Description: At 1, 3, 7, 10, 15, 30 days; 100 μL of the solutions were sampled and after adding stable Ang II as internal standard samples analyzed by HPLC-UV to monitor the stability of the conjugate over time. Table 3, below, provides the percent of the Ang peptide conjugate remaining in each sample after storage for 4 weeks.
# [6] = tested on: adjuvant-induced arthritis; assay: Adjuvant-induced arthritis rat model (body weight, paw and joint diameters, plasma NO); format: in vivo, male Sprague Dawley rats; conditions: for inflammation and swelling of paws and joints (in words): preventive and treatment groups; for Mean body weight (SD); body weight gain (%) compared with day 1 / Mean body weight (SD); body weight gain (%) after 7 days of dosing: inflamed animals
# Description: (§3) The Ang peptide conjugate described in Example 1 was examined for anti-inflammatory effect on adjuvant-induced arthritis in a rat animal model. On day one, for induction of adjuvant arthritis, male Sprague Dawley rats were injected at the tail base with 0.2 mL of 50 mg/mL Mycobacterium butyricum. Arthritic animals were divided into 4 groups and treated with saline, Ang II, Ang 1-7 or Ang peptide conjugate. A group of healthy rats received vehicle as control group. Preventive and treatment groups subcutaneously received 200 μg/kg equitant dose daily from day one for 3 weeks or after emergence of arthritis for 1 week, respectively. Animals were monitored daily for their body weight, paw and joint diameters. Animals were then euthanized, plasma/tissues were harvested and analyzed for plasma nitric oxide (NO), and the RAS components.
# osteosarcoma tumors = assay: Osteosarcoma tumor-bearing mouse model, tumor size; format: in vivo, mice; conditions: s.c. twice daily, equivalent dose of Ang 1-7 of 400 μg/kg, three weeks; FIG. 13
# Description: The Ang peptide conjugate described in Example 1 was examined for inhibition of the RAS in an advanced form of osteosarcoma. For the in vivo study, a group of mice bearing osteosarcoma tumors was divided into three different groups and subcutaneously dosed twice daily with vehicle (PEG 400: normal Saline, 3:2), Ang 1-7, or Ang peptide conjugate (equivalent dose of Ang 1-7 of 400 μg/kg) for three weeks. The tumor size was measured three times a week. Tumor tissues were harvested and kept in appropriate medium in −80° C. for further analysis of different cancer biomarkers.
# [7] = tested on: cardiac ACE2, ACE and Mas receptor expression; assay: Cardiac RAS component expression in adjuvant-induced arthritis rats; format: in vivo; conditions: for cardiac ACE2/ACE ratio: preventive treatment, FIG. 16, 17; for cardiac Mas receptor expression: treatment after establishment of inflammation, FIG. 18, 19
# Description: as §3, with “On” for “The Ang peptide conjugate described in Example 1 was examined for anti-inflammatory effect on adjuvant-induced arthritis in a rat animal model. On”
# [8] = tested on: synovial sarcoma cell lines SYO1 and MoJo, renal carcinoma cell line FUUR1; assay: In vitro cell viability / anti-proliferative activity on cancer cell lines (Example 1); format: cell-based; conditions: various concentrations, FIG. 6-8
# Description: Upon confirmation of final chemical structure of the active conjugates, the anti-proliferative activity was tested using different cancer cell lines, including synovial sarcoma cell lines SYO1 and MoJo, and the renal carcinoma cell line FUUR1. Results comparing the percent viability of the tested cell lines upon incubation with AngII, Ang1-7, or the Ang peptide conjugate are provided in FIG. 6 (SYO1), FIG. 7 (MoJo) and FIG. 8 (FUUR1). The cell lines were incubated with concentrations of the tested materials at various concentrations, as shown.
# [9] = preventive arm, compared with day 1
# [10] = treatment arm, after 7 days of dosing
substance,measurement,setting,value
Ang peptide conjugate: Ang 1-7 peptide bonded at N-terminus to 27-mer mono-disperse PEG(maleimide)2 spacer conjugated with a thiol-bisphosphonate,ACE2 gene expression,[1],significantly higher
same,ACE gene expression,[1],enhanced to some level
same,AT1R gene expression,[1],enhanced to some level
same,Mas receptor gene expression,[1],significantly higher
same,tissue distribution compared with native peptides,[2],higher affinity to thyroid and bone
same,increase in plasma half-life as compared to the native peptide,[3]; after intravenous administration,10 fold
same,increase in half-life as compared to the native peptide,[3]; after subcutaneous injection,15 fold
same,half-life compared with native peptides,"[3]; rats, FIG. 10",longer half-life
same,effect on cell proliferation,[4],anti-proliferative effect was more pronounced
same,percent of conjugate remaining,"[5]; Acetate buffer (pH 5.5), 4 °C, 5 days",98.4%
same,percent of conjugate remaining,"[5]; Acetate buffer (pH 5.5), 4 °C, 28 days",98.0%
same,percent of conjugate remaining,"[5]; Acetate buffer (pH 5.5), 25 °C, 5 days",94.3%
same,percent of conjugate remaining,"[5]; Acetate buffer (pH 5.5), 25 °C, 28 days",93.3%
same,percent of conjugate remaining,"[5]; Acetate buffer (pH 5.5), −20 °C, 5 days",99.8%
same,percent of conjugate remaining,"[5]; Acetate buffer (pH 5.5), −20 °C, 28 days",99.5%
same,percent of conjugate remaining,"[5]; D. D. Water (pH 6.5), 4 °C, 5 days",95.9%
same,percent of conjugate remaining,"[5]; D. D. Water (pH 6.5), 4 °C, 28 days",92.4%
same,percent of conjugate remaining,"[5]; D. D. Water (pH 6.5), 25 °C, 5 days",90.6%
same,percent of conjugate remaining,"[5]; D. D. Water (pH 6.5), 25 °C, 28 days",64.0%
same,percent of conjugate remaining,"[5]; D. D. Water (pH 6.5), −20 °C, 5 days",99.5%
same,percent of conjugate remaining,"[5]; D. D. Water (pH 6.5), −20 °C, 28 days",99.1%
same,percent of conjugate remaining,"[5]; Phosphate buffer (pH 7.4), 4 °C, 5 days",91.9%
same,percent of conjugate remaining,"[5]; Phosphate buffer (pH 7.4), 4 °C, 28 days",79.2%
same,percent of conjugate remaining,"[5]; Phosphate buffer (pH 7.4), 25 °C, 5 days",72.8%
same,percent of conjugate remaining,"[5]; Phosphate buffer (pH 7.4), 25 °C, 28 days",22.6%
same,percent of conjugate remaining,"[5]; Phosphate buffer (pH 7.4), −20 °C, 5 days",99.2%
same,percent of conjugate remaining,"[5]; Phosphate buffer (pH 7.4), −20 °C, 28 days",98.9%
same,inflammation and swelling of paws and joints (in words),[6],reduced the inflammation and swelling to a comparable level with the control group
same,Difference vs. Inf- Vehicle in body weight gain (%),[6]; [9],6.22%
same,Mean body weight (SD); body weight gain (%) compared with day 1,[6]; preventive arm,15.1 (12.0) %
same,plasma level of NO,"[6]; preventive arm, 200 μg/kg s.c. daily from day one for 3 weeks, FIG. 14",reduce the elevated plasma level of NO
same,Difference vs. Inf- Vehicle in body weight gain (%),[6]; [10],3.0%
same,Mean body weight (SD); body weight gain (%) after 7 days of dosing,[6]; treatment arm,7.3 (4.3) * %
same,plasma level of NO,"[6]; treatment arm, 200 μg/kg s.c. daily for 1 week after emergence of arthritis, FIG. 15",reduce the elevated plasma level of NO
same,tumor growth inhibition,osteosarcoma tumors,potently inhibited tumor growth after 3-4 days
same,cardiac ACE2/ACE ratio,[7],restored this balance
same,cardiac Mas receptor expression,[7],restored this balance
same,cell viability compared with native peptides,[8],superior activity
"Angiotensin 1-7 (DRVYIHP) [Ang 1-7, reference compound]",ACE2 gene expression,[1],did not significantly change
same,ACE gene expression,[1],very large effect
same,AT1R gene expression,[1],did not significantly change
same,Mas receptor gene expression,[1],did not significantly change
same,effect on cell proliferation,[4],significant concentration dependent decrease on cell proliferation
same,inflammation and swelling of paws and joints (in words),[6],reduced the inflammation and swelling to a comparable level with the control group
same,Difference vs. Inf- Vehicle in body weight gain (%),[6]; [9],4.78%
same,Mean body weight (SD); body weight gain (%) compared with day 1,[6]; preventive arm,13.6 (8.8) %
same,Difference vs. Inf- Vehicle in body weight gain (%),[6]; [10],5.7%
same,Mean body weight (SD); body weight gain (%) after 7 days of dosing,[6]; treatment arm,10.0 (4.8) * %
same,tumor growth inhibition,osteosarcoma tumors,milder effect after 10 days
same,cardiac ACE2/ACE ratio,[7],restored this balance
same,cardiac Mas receptor expression,[7],restored this balance
"Angiotensin II (DRVYIHPF; Angiotensin-2; UniProt P01019 25-32, looked up) [Ang II, native Angiotensin II peptide, pro-inflammatory agent, negative control]",effect on cell proliferation,[4],remarkable proliferative effect
same,inflammation and swelling of paws and joints (in words),[6],made the situation worse
same,Difference vs. Inf- Vehicle in body weight gain (%),[6]; [9],4.32%
same,Mean body weight (SD); body weight gain (%) compared with day 1,[6]; preventive arm,13.2 (3.1) %
